Earlier results in US7943615B2, “Fused aminopiperidines as dipeptidyl peptidase-4 inhibitors for the treatment or prevention of diabetes” (Merck Sharp & Dohme Corp., priority 2005, dated 2011).
One block for each compound: values may come before it.

How the values were obtained:
[1] = target: T1, DPP-4 (Homo sapiens, UniProt P27487)
T1 construct: GRF is rapidly degraded in plasma to GRF[344]

[2] = tested on: hematopoiesis; details: mouse, cyclophosphamide-induced neutropenia
[3] = tested on: cardiac allograft; details: rats; doubled from day 7

T1 sequence (P27487 whole entry, species assumed): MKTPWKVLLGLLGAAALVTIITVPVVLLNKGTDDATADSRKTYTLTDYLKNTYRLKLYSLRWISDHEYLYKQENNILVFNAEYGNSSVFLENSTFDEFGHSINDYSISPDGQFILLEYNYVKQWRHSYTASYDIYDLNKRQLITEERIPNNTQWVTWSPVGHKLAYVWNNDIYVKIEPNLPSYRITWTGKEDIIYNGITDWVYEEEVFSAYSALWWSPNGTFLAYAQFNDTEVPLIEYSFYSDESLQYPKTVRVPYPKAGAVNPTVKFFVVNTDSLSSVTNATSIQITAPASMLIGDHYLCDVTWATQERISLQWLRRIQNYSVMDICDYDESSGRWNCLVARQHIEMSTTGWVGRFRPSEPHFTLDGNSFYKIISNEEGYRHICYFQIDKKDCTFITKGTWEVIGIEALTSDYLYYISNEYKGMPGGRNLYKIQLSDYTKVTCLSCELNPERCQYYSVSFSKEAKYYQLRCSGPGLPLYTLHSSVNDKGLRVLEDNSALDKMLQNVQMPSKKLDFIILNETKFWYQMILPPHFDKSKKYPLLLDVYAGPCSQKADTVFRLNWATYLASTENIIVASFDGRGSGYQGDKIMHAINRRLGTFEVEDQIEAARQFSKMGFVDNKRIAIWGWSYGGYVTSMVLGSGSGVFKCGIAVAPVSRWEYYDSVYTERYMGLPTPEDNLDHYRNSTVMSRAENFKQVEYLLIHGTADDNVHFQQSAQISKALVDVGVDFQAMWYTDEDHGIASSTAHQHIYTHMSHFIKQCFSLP

effect on degradation of GRF in plasma [1]: prevented
Compound: diprotin A

Compound: CC(C)[C@H](N)C(=O)N1CCC[C@H]1B(O)O [Val-Boro-Pro]
effect on hematopoiesis [2]: stimulated hematopoiesis

Compound: CC(C)N1CCC(c2ccccc2)(c2ccccc2)CC1 [Prodipine, Pro-Pro-diphenyl-phosphonate]
cardiac allograft survival [3]: 14 day
